Assay: In Vitro Assays for IDH1m (R132H or R132C) Inhibitors: In the primary reaction, the reduction of α-KG acid to 2-HG is accompanied by a concomitant oxidation of NADPH to NADP. The amount of NADPH remaining at the end of the reaction time is measured in a secondary diaphorase/resazurin reaction in which the NADPH is consumed in a 1:1 molar ratio with the conversion of resazurin to the highly fluorescent resorufin. […] The mixture of compound, enzyme, and cofactor is pre-incubated at room temperature for 1 hr prior to the addition of alpha-ketoglutarate. To perform the secondary reaction, 10 uL of 1× buffer containing 36 μg/ml diaphorase and 30 mM resazurin is added to the primary reaction and incubated for a further 5 minutes at 25° C. Florescence is read on a Spectramax platereader at Ex 544 Em 590. Compounds or compound dilutions are prepared in 100% DMSO concentration and diluted 1:50 into the final reaction. IDH1 wt/IDH1 R132C is assayed under similar conditions except that 1× Buffer is 50 mM K2HPO4, pH 6.5; 10 mM MgCl2; 10% glycerol; 0.03% (w/v) bovine serum albumin and final concentrations are 0.4 ug/mL (4.3 nM) IDH1 wt/IDH1 R132C heterodimer, 0.02 mM alpha-ketoglutarate, 4 uM NADPH, and either 300 μM NADP (saturated) or 30 μM NADP (without saturation). IC50s are determined.IDH1 or IDH2 wildtype (wt) and mutant heterodimers are expressed and purified by methods known in the art. For example, IDH1wt/R132m heterodimer is expressed and purified as follows. Co-expression of IDH1wt-his and IDH1R132C-flag is carried out in sf9 insect cells. Cells (25 g) are resuspended in 250 ml of 50 mM Tris, 500 mM NaCl, pH7.4, at 4° C. with stirring. Cells are disrupted with 4 passes through an M-Y110 Micro fluidizer (Microfluidics) set to 500 psi, and then centrifuged at 22,000 rcf for 20 min at 4° C. The supernatant is harvested and loaded at 15 cm/h on a Histrap FF 5*1 ml column (GE) which is equilibrated with 50 mM Tris, 500 mM NaCl, pH7.4. Host cell contaminants are removed by washing the column with equilibration buffer followed by equilibration buffer containing 20 mM imidazole and 60 mM imidazole to baseline. IDH1wt-his homodimer and IDH1wt-his/IDH1R132C-flag are eluted by equilibration buffer containing 250 mM imidazole. Fractions eluted by 250 mM imidazole are pooled together and loaded at 15 cm/h onto a column pre-packed with 10 ml ANTI-FLAG® M2 Affinity Gel (Sigma), the column is equilibrated with 50 mM Tris, 500 mM NaCl, pH7.4. After washing with equilibration buffer, IDH1wt-his/IDH1R132C-flag heterodimer is eluted by equilibration buffer containing flag peptide (0.2 mg/ml). Aliquots of IDH1wt-his/IDH1R132C-flag are flash frozen in liquid N2 and stored at −80° C. Same conditions are used for the purification of IDH1wt-his/IDH1R132H-flag.

SMILES | IC50
N#CC1(c2cc(Nc3nc(NC4CCC(F)(F)C4)nc(-c4cccc(C(F)(F)F)n4)n3)ccn2)CC1 (centres undefined) | < 50 nM
N#CC1(c2cc(Nc3nc(NCC(F)(F)F)nc(-c4cccc(C(F)(F)F)n4)n3)ccn2)CC1 | in the range around 75 nM
N#CC1(c2cc(Nc3nc(NC4CC5(C4)CC(F)(F)C5)nc(-c4cccc(C(F)(F)F)n4)n3)ccn2)CC1 | in the range around 75 nM
N#CC1(c2cc(Nc3nc(NC4CCC(F)(F)CC4)nc(-c4cccc(C(F)(F)F)n4)n3)ccn2)CC1 | < 50 nM
